Data taken from the NIST ThermoML archive (doi:10.1021/je060271a).
Values joined by “and” are separate entries in the source; they are usually repeats but may differ in a detail not shown here. Identical values can stand only once.

Conditions: Liquid, Vibrating tube method

CCCCCCCC(=O)OCC(COC(=O)CCCCCCC)(COC(=O)CCCCCCC)COC(=O)CCCCCCC [pentaerythritol tetraoctanoate]
Conditions	mass density
323.16 K, 4757.8 kPa	943.8 kg/m3
323.16 K, 4775.8 kPa	944 kg/m3
323.16 K, 4790.7 kPa	943.8 kg/m3
323.16 K, 4806.4 kPa	943.9 kg/m3
323.16 K, 4825.1 kPa	943.9 kg/m3
323.16 K, 4840.2 kPa	943.9 kg/m3
323.16 K, 4856.4 kPa	943.9 kg/m3
323.16 K, 4875.1 kPa	943.9 kg/m3
323.16 K, 5122 kPa	944.1 kg/m3
323.16 K, 5143.5 kPa	944.1 kg/m3
323.16 K, 5161 kPa	944.2 kg/m3
323.16 K, 5179 kPa	944.2 kg/m3
323.16 K, 5197.1 kPa	944.1 kg/m3
323.16 K, 5335.6 kPa	944.3 kg/m3
323.16 K, 5398.2 kPa	944.3 kg/m3
323.16 K, 5417.6 kPa	944.3 kg/m3
323.16 K, 5438 kPa	944.3 kg/m3
323.16 K, 5461.9 kPa	944.3 kg/m3
323.16 K, 5481.8 kPa	944.5 kg/m3
323.16 K, 5502.5 kPa	944.5 kg/m3
323.16 K, 5527.1 kPa	944.4 kg/m3
323.16 K, 5547.9 kPa	944.4 kg/m3
323.16 K, 5568.6 kPa	944.4 kg/m3
323.16 K, 5590.2 kPa	944.4 kg/m3
323.16 K, 5611.9 kPa	944.4 kg/m3
323.16 K, 5637.6 kPa	944.4 kg/m3
323.16 K, 5659.6 kPa	944.4 kg/m3
323.16 K, 5703.9 kPa	944.5 kg/m3
323.16 K, 5774.4 kPa	944.6 kg/m3
323.16 K, 5797.1 kPa	944.6 kg/m3
323.16 K, 5824.6 kPa	944.7 kg/m3
323.16 K, 5870.9 kPa	944.6 kg/m3
323.16 K, 6078.5 kPa	944.7 kg/m3
323.16 K, 6238.8 kPa	944.8 kg/m3
323.16 K, 6265.6 kPa	944.9 kg/m3
323.16 K, 6297.7 kPa	944.9 kg/m3
323.16 K, 6324.9 kPa	944.9 kg/m3
323.16 K, 6352.7 kPa	944.9 kg/m3
323.16 K, 6380.2 kPa	944.9 kg/m3
323.16 K, 12370 kPa	948.8 kg/m3
323.16 K, 12396 kPa	948.8 kg/m3
323.16 K, 12424 kPa	948.8 kg/m3
323.16 K, 20026 kPa	953.6 kg/m3
323.16 K, 21868 kPa	954.6 kg/m3
323.16 K, 21910 kPa	954.7 kg/m3
323.16 K, 22807 kPa	955.3 kg/m3
323.16 K, 27149 kPa	957.8 kg/m3
323.16 K, 27197 kPa	957.9 kg/m3
323.16 K, 27237 kPa	957.9 kg/m3
323.16 K, 27277 kPa	957.9 kg/m3
323.16 K, 27317 kPa	957.9 kg/m3
323.16 K, 27366 kPa	957.9 kg/m3
323.16 K, 27451 kPa	958 kg/m3
323.16 K, 27504 kPa	958 kg/m3
323.16 K, 27997 kPa	958.3 kg/m3
323.16 K, 28020 kPa	958.4 kg/m3
323.16 K, 28046 kPa	958.3 kg/m3
323.16 K, 28069 kPa	958.3 kg/m3
343.14 K, 4667.8 kPa	929.4 kg/m3
343.14 K, 4690.1 kPa	929.4 kg/m3
343.14 K, 8016.3 kPa	931.8 kg/m3
343.14 K, 8048.6 kPa	931.8 kg/m3
343.14 K, 8086.2 kPa	932 kg/m3
343.14 K, 8118.6 kPa	931.9 kg/m3
343.14 K, 8397.9 kPa	932.1 kg/m3
343.14 K, 8438.9 kPa	932.1 kg/m3
343.14 K, 8473.8 kPa	932.1 kg/m3
343.14 K, 8822.1 kPa	932.4 kg/m3
343.14 K, 8860.4 kPa	932.5 kg/m3
343.14 K, 8906.8 kPa	932.5 kg/m3
343.14 K, 8945 kPa	932.5 kg/m3
343.14 K, 9418.7 kPa	932.8 kg/m3
343.14 K, 10399 kPa	933.5 kg/m3
343.14 K, 11681 kPa	934.4 kg/m3
343.14 K, 13765 kPa	935.9 kg/m3
343.14 K, 16874 kPa	938 kg/m3
343.14 K, 17179 kPa	938.2 kg/m3
343.14 K, 17211 kPa	938.2 kg/m3
343.14 K, 17250 kPa	938.2 kg/m3
343.14 K, 17283 kPa	938.3 kg/m3
343.14 K, 17315 kPa	938.2 kg/m3
343.14 K, 20086 kPa	940.3 kg/m3
343.14 K, 20133 kPa	940.1 kg/m3
343.14 K, 20456 kPa	940.4 kg/m3
343.14 K, 20478 kPa	940.5 kg/m3
343.14 K, 20501 kPa	940.3 kg/m3
343.14 K, 22979 kPa	942 kg/m3
343.14 K, 24214 kPa	942.8 kg/m3
343.14 K, 26657 kPa	944.4 kg/m3
343.14 K, 30407 kPa	946.7 kg/m3
343.14 K, 30444 kPa	946.7 kg/m3
343.14 K, 30488 kPa	946.6 kg/m3
343.14 K, 30968 kPa	947 kg/m3
343.14 K, 32801 kPa	948 kg/m3
343.15 K, 105.1 kPa	926 kg/m3
343.15 K, 105.3 kPa	926.1 kg/m3 and 926 kg/m3 and 926.2 kg/m3
343.15 K, 105.5 kPa	926 kg/m3
343.15 K, 105.6 kPa	925.9 kg/m3
343.15 K, 106 kPa	926.1 kg/m3
343.15 K, 108.9 kPa	926 kg/m3
343.15 K, 123.5 kPa	926.1 kg/m3
343.15 K, 154.3 kPa	926 kg/m3
343.15 K, 224 kPa	926.1 kg/m3
343.15 K, 227.5 kPa	926.1 kg/m3
343.15 K, 231.8 kPa	926 kg/m3
343.15 K, 235.3 kPa	926.1 kg/m3
343.15 K, 239.5 kPa	926.1 kg/m3
343.15 K, 243.8 kPa	926.3 kg/m3
343.15 K, 248 kPa	926.2 kg/m3
343.15 K, 253 kPa	926.2 kg/m3
343.15 K, 257.4 kPa	926.1 kg/m3
343.15 K, 262.8 kPa	926.2 kg/m3
343.15 K, 268.2 kPa	926.1 kg/m3
343.15 K, 273.2 kPa	926.1 kg/m3
343.15 K, 279.6 kPa	926.1 kg/m3
343.15 K, 285.2 kPa	926.2 kg/m3
343.15 K, 292.1 kPa	926.2 kg/m3
343.15 K, 299.6 kPa	926.2 kg/m3
343.15 K, 305.7 kPa	926.2 kg/m3
343.15 K, 313.9 kPa	926.1 kg/m3
343.15 K, 321 kPa	926.1 kg/m3
343.15 K, 329.7 kPa	926.3 kg/m3
343.15 K, 338 kPa	926.3 kg/m3
343.15 K, 347.9 kPa	926.2 kg/m3
343.15 K, 358.4 kPa	926.1 kg/m3
343.15 K, 367.9 kPa	926.2 kg/m3
343.15 K, 379.9 kPa	926.1 kg/m3
343.15 K, 392.9 kPa	926.3 kg/m3
343.15 K, 404.2 kPa	926 kg/m3
343.15 K, 419.5 kPa	926.3 kg/m3
343.15 K, 433.8 kPa	926.1 kg/m3
343.15 K, 449.4 kPa	926.1 kg/m3
343.15 K, 460.9 kPa	926.1 kg/m3
343.15 K, 471.1 kPa	926.2 kg/m3
343.15 K, 480.2 kPa	926.3 kg/m3
343.15 K, 491.8 kPa	926.5 kg/m3
343.15 K, 504 kPa	926.2 kg/m3
343.15 K, 514.2 kPa	926.3 kg/m3
343.15 K, 527.6 kPa	926.3 kg/m3
343.15 K, 538.9 kPa	926.2 kg/m3
343.15 K, 553.3 kPa	926.3 kg/m3
343.15 K, 568.4 kPa	926.4 kg/m3
343.15 K, 582.5 kPa	926.4 kg/m3
343.15 K, 596.2 kPa	926.4 kg/m3
343.15 K, 613.8 kPa	926.4 kg/m3
343.15 K, 632.2 kPa	926.4 kg/m3
343.15 K, 648.4 kPa	926.4 kg/m3
